According to paper PMC8413292, “Small-molecule polymerase inhibitor protects non-human primates from measles and reduces shedding” (Nature Communications, 2021):
Several values for one entry are separate records, joined by “and”; a condition that tells them apart may be missing. Equal values may be shown once.

System: MV/FrankfurtMain.DEU/17.11 (genotype D8)
Test: Throat swab virus titers (shed virus, limited dilution)
Format: in vivo, squirrel monkeys (Saimiri sciureus)
Protocol: White blood cell counts, viral load quantification in PBMCs, and quantification of neutralizing antibody titers were performed as follows: for white blood cell counts, blood was diluted 1:100 in 3% acetic acid and cells were counted using a Neubauer chamber. For viral load quantification in PBMCs, blood was centrifuged at 3000 rpm for 15 min and serum was frozen at −20 °C until further use. Red blood cell lysis was performed and the remaining PBMCs were counted using a Neubauer chamber. Viral titers in PBMCs were quantified in quadruplicates using limited dilution method and calculated as TCID50/10^6 PBMCs. Neutralizing antibody titers were quantified by incubating MeV with 2-fold serial dilutions of the respective serum for 20 min at room temperature in quadruplicates. Vero/hSLAM cells were added and incubated for 3 days at 37 °C. Neutralizing antibody titers are expressed as the reciprocal of the highest serum dilution showing no signs of infection. For virus titration from throat swabs, swabs were placed in 150 μl DMEM with 3% penicillin/streptomycin and the titer was quantified by limited dilution method.

## Cn1nc(C(F)(F)F)cc1C(=O)Nc1ccc(S(=O)(=O)N2CCCC[C@H]2CCN2CCOCC2)cc1 [ERDRP-0519]
Day 7 therapeutic group, within 72 h of treatment initiation
  drop of shed virus titers (throat swab) compared to untreated animals: dropped significantly (p = 0.0199) by two orders of magnitude
prophylactic, Row 1 (0 d)
  Swab Titration, group mean (Mean 2): 0 log10(TCID50/ml)
prophylactic, Row 2 (3 d)
  Swab Titration, group mean (Mean 2): 0 log10(TCID50/ml)
prophylactic, Row 3 (7 d)
  Swab Titration, group mean (Mean 2): 0 log10(TCID50/ml)
prophylactic, Row 4 (10 d)
  Swab Titration, group mean (Mean 2): 0.4498 log10(TCID50/ml)
prophylactic, Row 5 (14 d)
  Swab Titration, group mean (Mean 2): 0 log10(TCID50/ml)
prophylactic, Row 6 (17 d)
  Swab Titration, group mean (Mean 2): 0.1165 log10(TCID50/ml)
prophylactic, time 10 d
  Viral titers (throat swab), individual animals: 2.699 log10(TCID50/ml)
prophylactic, time 17 d
  Viral titers (throat swab), individual animals: 0.699 log10(TCID50/ml)
Therapeutic (d3), Row 1 (0 d)
  Swab Titration, group mean (Mean 2): 0 log10(TCID50/ml)
Therapeutic (d3), Row 2 (3 d)
  Swab Titration, group mean (Mean 2): 0 log10(TCID50/ml)
Therapeutic (d3), Row 3 (7 d)
  Swab Titration, group mean (Mean 2): 0.7332 log10(TCID50/ml)
Therapeutic (d3), Row 4 (10 d)
  Swab Titration, group mean (Mean 2): 1.153 log10(TCID50/ml)
Therapeutic (d3), Row 5 (14 d)
  Swab Titration, group mean (Mean 2): 0 log10(TCID50/ml)
Therapeutic (d3), Row 6 (17 d)
  Swab Titration, group mean (Mean 2): 0 log10(TCID50/ml)
Therapeutic (d3), time 7 d
  Viral titers (throat swab), individual animals: 0.699 log10(TCID50/ml) and 2 log10(TCID50/ml) and 1.699 log10(TCID50/ml)
Therapeutic (d3), time 10 d
  Viral titers (throat swab), individual animals: 1.477 log10(TCID50/ml) (3×) and 2.477 log10(TCID50/ml)
Therapeutic (d7), Row 1 (0 d)
  Swab Titration, group mean (Mean 2): 0 log10(TCID50/ml)
Therapeutic (d7), Row 2 (3 d)
  Swab Titration, group mean (Mean 2): 0 log10(TCID50/ml)
Therapeutic (d7), Row 3 (7 d)
  Swab Titration, group mean (Mean 2): 2.207 log10(TCID50/ml)
Therapeutic (d7), Row 4 (10 d)
  Swab Titration, group mean (Mean 2): 0.9798 log10(TCID50/ml)
Therapeutic (d7), Row 5 (14 d)
  Swab Titration, group mean (Mean 2): 0 log10(TCID50/ml)
Therapeutic (d7), Row 6 (17 d)
  Swab Titration, group mean (Mean 2): 0 log10(TCID50/ml)
Therapeutic (d7), time 7 d
  Viral titers (throat swab), individual animals: 3.477 log10(TCID50/ml) and 2.699 log10(TCID50/ml) (2×) and 2.176 log10(TCID50/ml) (2×)
Therapeutic (d7), time 10 d
  Viral titers (throat swab), individual animals: 1.699 log10(TCID50/ml) and 1.477 log10(TCID50/ml) and 2.699 log10(TCID50/ml)
Untreated vs. prophylactic, Row 1 (0 d)
  Swab Titration, Mean Diff, untreated vs. treated: 0 log10(TCID50/ml)
Untreated vs. prophylactic, Row 2 (3 d)
  Swab Titration, Mean Diff, untreated vs. treated: 0 log10(TCID50/ml)
Untreated vs. prophylactic, Row 3 (7 d)
  Swab Titration, Mean Diff, untreated vs. treated: 1.98 log10(TCID50/ml)
Untreated vs. prophylactic, Row 4 (10 d)
  Swab Titration, Mean Diff, untreated vs. treated: 2.423 log10(TCID50/ml)
Untreated vs. prophylactic, Row 5 (14 d)
  Swab Titration, Mean Diff, untreated vs. treated: 0 log10(TCID50/ml)
Untreated vs. prophylactic, Row 6 (17 d)
  Swab Titration, Mean Diff, untreated vs. treated: 0.1302 log10(TCID50/ml)
Untreated vs. therapeutic (d3), Row 1 (0 d)
  Swab Titration, Mean Diff, untreated vs. treated: 0 log10(TCID50/ml)
Untreated vs. therapeutic (d3), Row 2 (3 d)
  Swab Titration, Mean Diff, untreated vs. treated: 0 log10(TCID50/ml)
Untreated vs. therapeutic (d3), Row 3 (7 d)
  Swab Titration, Mean Diff, untreated vs. treated: 1.247 log10(TCID50/ml)
Untreated vs. therapeutic (d3), Row 4 (10 d)
  Swab Titration, Mean Diff, untreated vs. treated: 1.72 log10(TCID50/ml)
Untreated vs. therapeutic (d3), Row 5 (14 d)
  Swab Titration, Mean Diff, untreated vs. treated: 0 log10(TCID50/ml)
Untreated vs. therapeutic (d3), Row 6 (17 d)
  Swab Titration, Mean Diff, untreated vs. treated: 0.2467 log10(TCID50/ml)
Untreated vs. therapeutic (d7), Row 1 (0 d)
  Swab Titration, Mean Diff, untreated vs. treated: 0 log10(TCID50/ml)
Untreated vs. therapeutic (d7), Row 2 (3 d)
  Swab Titration, Mean Diff, untreated vs. treated: 0 log10(TCID50/ml)
Untreated vs. therapeutic (d7), Row 3 (7 d)
  Swab Titration, Mean Diff, untreated vs. treated: -0.2268 log10(TCID50/ml)
Untreated vs. therapeutic (d7), Row 4 (10 d)
  Swab Titration, Mean Diff, untreated vs. treated: 1.893 log10(TCID50/ml)
Untreated vs. therapeutic (d7), Row 5 (14 d)
  Swab Titration, Mean Diff, untreated vs. treated: 0 log10(TCID50/ml)
Untreated vs. therapeutic (d7), Row 6 (17 d)
  Swab Titration, Mean Diff, untreated vs. treated: 0.2467 log10(TCID50/ml)
